Measured values from US9932340B2, “Substituted indoles” (AbbVie Inc., priority 2014, dated 2018).

target: SUV420H1 enzyme (Homo sapiens, UniProt Q4FZB7); test: TR-FRET SAH SUV420H1 enzyme inhibition assay; assay type: biochemical; details: Histone Peptide H4(8-30)me1 and SAM, overnight at room temp, TR-FRET detection of SAH, read-out: TR-FRET SAH_SUV420H1 IC50
Procedure, shortened: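 SUV420H1 (90 nM) preincubated 30 min with compound (3-fold dilutions, 50 to 0.00075 μM), then H4(8-30)me1 peptide 5 nM and SAM 4 nM added, overnight at room temp. SAH product detected by TR-FRET with Tb anti-SAH antibody and Oregon Green-SAH in RIPA buffer, 4 h; IC50 from Hill fit, asymptotes fixed 0-100%.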

Chain of SUV420H1 enzyme (Q4FZB7 whole entry): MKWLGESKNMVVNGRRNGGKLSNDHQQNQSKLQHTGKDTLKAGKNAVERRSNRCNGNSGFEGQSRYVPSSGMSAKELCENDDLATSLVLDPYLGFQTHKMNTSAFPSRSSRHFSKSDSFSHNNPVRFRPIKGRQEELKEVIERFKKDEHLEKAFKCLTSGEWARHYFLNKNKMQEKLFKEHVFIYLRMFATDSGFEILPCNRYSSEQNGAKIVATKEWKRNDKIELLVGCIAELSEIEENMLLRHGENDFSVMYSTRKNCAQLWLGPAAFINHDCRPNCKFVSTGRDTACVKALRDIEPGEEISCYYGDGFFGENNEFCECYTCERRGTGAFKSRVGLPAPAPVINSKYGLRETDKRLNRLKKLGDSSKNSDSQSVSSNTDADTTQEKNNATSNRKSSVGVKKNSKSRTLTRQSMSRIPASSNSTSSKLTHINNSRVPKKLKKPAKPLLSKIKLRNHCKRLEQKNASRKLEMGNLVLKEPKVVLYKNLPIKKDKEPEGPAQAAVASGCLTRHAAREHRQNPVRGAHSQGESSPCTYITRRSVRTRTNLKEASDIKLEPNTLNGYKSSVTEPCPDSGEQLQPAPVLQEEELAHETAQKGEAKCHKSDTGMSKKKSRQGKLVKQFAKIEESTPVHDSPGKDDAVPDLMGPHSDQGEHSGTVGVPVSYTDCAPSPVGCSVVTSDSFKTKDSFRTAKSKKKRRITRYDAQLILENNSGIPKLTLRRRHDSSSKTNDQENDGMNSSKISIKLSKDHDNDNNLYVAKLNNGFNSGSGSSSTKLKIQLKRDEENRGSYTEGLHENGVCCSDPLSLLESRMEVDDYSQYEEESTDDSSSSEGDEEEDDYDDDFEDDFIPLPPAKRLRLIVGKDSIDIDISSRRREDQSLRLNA

IC50 | Structure (SMILES)
18200 nM | CC(C)(C)CC(=O)NCc1cc2cc(Cl)cc(Cn3cnc4c(N)ncnc43)c2[nH]1 [Example 104, N-({7-[(6-amino-9H-purin-9-yl)methyl]-5-chloro-1H-indol-2-yl}methyl)-3,3-dimethylbutanamide]
3630 nM | Cc1ccc(CNCc2cc3cc(Cl)cc(Cn4cnc5c(N)ncnc54)c3[nH]2)cc1 [Example 241, 9-[(5-chloro-2-{[(4-methylbenzyl)amino]methyl}-1H-indol-7-yl)methyl]-9H-purin-6-amine]
12900 nM | Nc1ncnc2c1ncn2Cc1cc(Cl)cc2cc(CNC(=O)CCc3ccccc3)[nH]c12 [Example 291, N-({7-[(6-amino-9H-purin-9-yl)methyl]-5-chloro-1H-indol-2-yl}methyl)-3-phenylpropanamide]
4660 nM | Nc1ncnc2c1ncn2Cc1cc(Cl)cc2cc(CNC(=O)c3ccc4[nH]ncc4c3)[nH]c12 [Example 346, N-({7-[(6-amino-9H-purin-9-yl)methyl]-5-chloro-1H-indol-2-yl}methyl)-1H-indazole-5-carboxamide]
780 nM | NCc1cc2cc(-c3ccncc3)cc(Cn3cnc4c(N)ncnc43)c2[nH]1 [Example 21, 9-{[2-(aminomethyl)-5-(pyridin-4-yl)-1H-indol-7-yl]methyl}-9H-purin-6-amine]
58.9 nM | Cc1nnccc1C(=O)NCc1cc2cc(C3=CCC(F)(F)CC3)cc(Cn3cnc4c(N)ncnc43)c2[nH]1 [Example 201, N-({7-[(6-amino-9H-purin-9-yl)methyl]-5-(4,4-difluorocyclohex-1-en-1-yl)-1H-indol-2-yl}methyl)-3-methylpyridazine-4-carboxamide]
632 nM | COc1ccc(-c2ccc(Cn3cnc4c(N)ncnc43)c3[nH]c(CN)cc23)cc1 [Example 78, 9-{[2-(aminomethyl)-4-(4-methoxyphenyl)-1H-indol-7-yl]methyl}-9H-purin-6-amine]
910 nM | Cc1noc(C2CC2)c1C(=O)NCc1cc2cc(Cl)cc(Cn3cnc4c(N)ncnc43)c2[nH]1 [Example 190, N-({7-[(6-amino-9H-purin-9-yl)methyl]-5-chloro-1H-indol-2-yl}methyl)-5-cyclopropyl-3-methyl-1,2-oxazole-4-carboxamide]
6360 nM | CC(C)CC(=O)NCc1cc2cc(Cl)cc(Cn3cnc4c(N)ncnc43)c2[nH]1 [Example 102, N-({7-[(6-amino-9H-purin-9-yl)methyl]-5-chloro-1H-indol-2-yl}methyl)-3-methylbutanamide]
32200 nM | Cc1ccc(CC(=O)NCc2cc3cc(Cl)cc(Cn4cnc5c(N)ncnc54)c3[nH]2)cc1 [Example 292, N-({7-[(6-amino-9H-purin-9-yl)methyl]-5-chloro-1H-indol-2-yl}methyl)-2-(4-methylphenyl)acetamide]
2140 nM | Nc1ncnc2c1ncn2Cc1cc(Cl)cc2cc(CNC(=O)c3cnn4c3CCCC4)[nH]c12 [Example 192, N-({7-[(6-amino-9H-purin-9-yl)methyl]-5-chloro-1H-indol-2-yl}methyl)-4,5,6,7-tetrahydropyrazolo[1,5-a]pyridine-3-carboxamide]
3030 nM | Nc1ncnc2c1ncn2Cc1cc(Cl)cc2cc(CNC(=O)c3ccc4nc(O)sc4c3)[nH]c12 [Example 341]
2750 nM | CS(=O)(=O)c1cccc(CNCc2cc3cc(Cl)cc(Cn4cnc5c(N)ncnc54)c3[nH]2)c1 [Example 262, 9-{[5-chloro-2-({[3-(methylsulfonyl)benzyl]amino}methyl)-1H-indol-7-yl]methyl}-9H-purin-6-amine]
3360 nM | Nc1ncnc2c1ncn2Cc1cc(Cl)cc2cc(CNC(=O)c3cnoc3C3CC3)[nH]c12 [Example 189, N-({7-[(6-amino-9H-purin-9-yl)methyl]-5-chloro-1H-indol-2-yl}methyl)-5-cyclopropyl-1,2-oxazole-4-carboxamide]
72.3 nM | Cc1cc(C#N)ccc1C(=O)NCc1cc2cc(Cl)cc(Cn3cnc4c(N)ncnc43)c2[nH]1 [Example 303, N-({7-[(6-amino-9H-purin-9-yl)methyl]-5-chloro-1H-indol-2-yl}methyl)-4-cyano-2-methylbenzamide]
440 nM | CC(=O)N1CCC=C(c2cc(Cn3cnc4c(N)ncnc43)c3[nH]c(CN)cc3c2)C1 [Example 16, 1-[5-{2-(aminomethyl)-7-[(6-amino-9H-purin-9-yl)methyl]-1H-indol-5-yl}-3,6-dihydropyridin-1(2H)-yl]ethanone]
8220 nM | Nc1ncnc2c1ncn2Cc1cc(Cl)cc2cc(CNC(=O)c3ccccc3OC3CCOCC3)[nH]c12 [Example 321, N-({7-[(6-amino-9H-purin-9-yl)methyl]-5-chloro-1H-indol-2-yl}methyl)-2-(tetrahydro-2H-pyran-4-yloxy)benzamide]
> 50000 nM | COCC(=O)NCc1cc2cc(Cl)cc(Cn3cnc4c(N)ncnc43)c2[nH]1 [Example 95, N-({7-[(6-amino-9H-purin-9-yl)methyl]-5-chloro-1H-indol-2-yl}methyl)-2-methoxyacetamide]
50 nM | Cc1cc(C#N)ccc1C(=O)NCc1cc2cc(C3=CCN(C(=O)OC(C)(C)C)CC3)cc(Cn3cnc4c(N)ncnc43)c2[nH]1 [Example 308]
4540 nM | Nc1ncnc2c1ncn2Cc1cc(Cl)cc2cc(CNC(=O)CCN3CCCCC3)[nH]c12 [Example 135, N-({7-[(6-amino-9H-purin-9-yl)methyl]-5-chloro-1H-indol-2-yl}methyl)-3-(piperidin-1-yl)propanamide]
9730 nM | C=CC(=O)NCc1cc2cc(Cl)cc(Cn3cnc4c(N)ncnc43)c2[nH]1 [Example 93, N-({7-[(6-amino-9H-purin-9-yl)methyl]-5-chloro-1H-indol-2-yl}methyl)prop-2-enamide]
66.1 nM | Cc1noc(C)c1C(=O)NCc1cc2cc(-c3cccc(C#N)c3)cc(Cn3cnc4c(N)ncnc43)c2[nH]1 [Example 172, N-({7-[(6-amino-9H-purin-9-yl)methyl]-5-(3-cyanophenyl)-H-indol-2-yl}methyl)-3,5-dimethyl-1,2-oxazole-4-carboxamide]
901 nM | Cc1cccc(-c2cc(Cn3cnc4c(N)ncnc43)c3[nH]c(CN)cc3c2)c1 [Example 31, 9-{[2-(aminomethyl)-5-(3-methylphenyl)-1H-indol-7-yl]methyl}-9H-purin-6-amine]
139 nM | Cc1noc(C)c1C(=O)NCc1cc2cc(-c3ccccc3)cc(Cn3cnc4c(N)ncnc43)c2[nH]1 [Example 164, N-({7-[(6-amino-9H-purin-9-yl)methyl]-5-phenyl-1H-indol-2-yl}methyl)-3,5-dimethyl-1,2-oxazole-4-carboxamide]
507 nM | CCn1nc(C)c(C(=O)NCc2cc3cc(Cl)cc(Cn4cnc5c(N)ncnc54)c3[nH]2)c1C [Example 188, N-({7-[(6-amino-9H-purin-9-yl)methyl]-5-chloro-1H-indol-2-yl}methyl)-1-ethyl-3,5-dimethyl-1H-pyrazole-4-carboxamide]
135 nM | NCc1cc2cc(C3=CCNCC3)cc(Cn3cnc4c(N)ncnc43)c2[nH]1 [Example 13, 9-{[2-(aminomethyl)-5-(1,2,3,6-tetrahydropyridin-4-yl)-1H-indol-7-yl]methyl}-9H-purin-6-amine]
186 nM | NCc1cc2cc(C3=CCC(F)(F)CC3)cc(Cn3cnc4c(N)ncnc43)c2[nH]1 [Example 14, 9-{[2-(aminomethyl)-5-(4,4-difluorocyclohex-1-en-1-yl)-1H-indol-7-yl]methyl}-9H-purin-6-amine]
